Strand notation (5' to 3'): a small letter for the sugar, then the base; units joined by * are phosphorothioate-linked, units joined directly phosphodiester-linked; [ ] holds rarer units or linkages, { } end groups; capitals alone tell only the bases. k = constrained ethyl (cEt); [5mC] = 5-methylcytosine; d = 2'-deoxy (DNA)
System: Yap1 mRNA
Assay: Antisense inhibition of human Yap1 in A-431 cells by cEt gapmers, single dose (Example 2, RTS4814)
Type: cell-based
Method in brief: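 A-431 cells (5,000/well) took up 2,000 nM 3-10-3 cEt gapmer by free uptake for ~48 h. Yap1 mRNA was quantified by qRT-PCR with primer probe set RTS4814, normalized to RIBOGREEN total RNA, and reported as % of untreated control.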

[1] = Yap1 mRNA as percent of untreated control, A-431 cells, 3-10-3 cEt gapmers targeting SEQ ID NO.: 1, and 2, Table 31
[2] = Table 22, Yap1 mRNA as percent of untreated control, 3-10-3 cEt gapmers, single dose
[3] = Table 18, A-431 cells, 5,000 cells per well, free uptake, 2,000 nM modified oligonucleotide, approx. 48 hours, RTS4814, normalized to RIBOGREEN, Yap1 mRNA as percent of untreated control
[4] = Table 23, Yap1 mRNA as percent of untreated control, 3-10-3 cEt gapmers, single dose
[5] = Table 19, A-431 cells, 5,000 cells per well, free uptake, 2,000 nM modified oligonucleotide, approx. 48 hours, RTS4814, normalized to RIBOGREEN, Yap1 mRNA as percent of untreated control
[6] = Table 32, Yap1 mRNA, percent of untreated control, 3-10-3 cEt gapmers targeting SEQ ID NO.: 1, and 2
[7] = Table 25, Yap1 mRNA as percent of untreated control, 3-10-3 cEt gapmers targeting SEQ ID NO.: 1, and 2
[8] = Table 6, A-431 cells, 5,000 cells per well, free uptake, 2,000 nM modified oligonucleotide, approx. 48 hours, RTS4814, normalized to RIBOGREEN, Yap1 mRNA relative to untreated control cells
[9] = Table 21, Yap1 mRNA, percent of untreated control, 3-10-3 cEt gapmers targeting SEQ ID NO.: 1 and 2
[10] = Table 33, Yap1 mRNA, percent of untreated control, 3-10-3 cEt gapmers targeting SEQ ID NO.: 1, and 2
[11] = Table 5, A-431 cells, 5,000 cells per well, free uptake, 2,000 nM modified oligonucleotide, approx. 48 hours, RTS4814, normalized to RIBOGREEN, Yap1 mRNA relative to untreated control cells
[12] = A-431 cells, 5,000 cells per well, free uptake, 2,000 nM modified oligonucleotide, approx. 48 hours, RTS4814, normalized to RIBOGREEN, Table 4, asterisk (*) = targets amplicon region of primer probe set
[13] = Table 20, Yap1 mRNA, percent of untreated control, 3-10-3 cEt gapmers targeting SEQ ID NO.: 1 and 2

1075025 (antisense kA*k[5mC]*kT*dT*dA*dA*dG*dA*dA*d[5mC]*dT*d[5mC]*dA*k[5mC]*kA*k[5mC]) [compound 1075025]
YAP1 (% UTC) [1]: 58 % UTC

1074568 (antisense kG*kA*kA*d[5mC]*d[5mC]*dT*dA*d[5mC]*dT*d[5mC]*dA*d[5mC]*dT*kG*kA*kA) [Compound 1074568]
YAP1 (% UTC) [2]: 12 % UTC

1075620 (kG*kA*kT*dG*dA*dA*dG*dA*dA*dT*d[5mC]*dT*dA*kT*kA*kG; antisense) [Compound 1075620]
YAP1 (% UTC) [3]: 88 % UTC

1074281 (antisense kG*kA*kG*dG*dG*dT*d[5mC]*dA*dA*dG*d[5mC]*d[5mC]*dT*kT*kG*kG) [Compound 1074281]
YAP1 (% UTC) [4]: 91 % UTC

1076293 (kG*k[5mC]*kT*dT*dA*dT*dT*dA*dT*dT*dG*dA*dG*kT*kT*kA; antisense) [Compound 1076293]
YAP1 (% UTC) [5]: 3 % UTC

1075890 (antisense kG*kA*kT*dT*dA*dA*dA*dA*dG*dT*dA*dG*dG*k[5mC]*k[5mC]*k[5mC]) [compound 1075890]
YAP1 (% UTC) [6]: 92 % UTC

1074251 (antisense kT*k[5mC]*kT*dG*dA*dT*d[5mC]*dG*dA*dT*dG*dT*dG*kA*kT*kT) [Compound 1074251]
YAP1 (% UTC) [7]: 7 % UTC

716459 (k[5mC]*kG*k[5mC]*dT*dA*d[5mC]*d[5mC]*dA*dT*dT*dT*dT*dA*kA*kA*kA; antisense) [Compound 716459]
YAP1 (% UTC) [8]: 121 % UTC

1074953 (antisense kG*kG*kG*dT*dT*dT*dT*dT*dG*dT*d[5mC]*dA*dT*k[5mC]*kA*kG) [Compound 1074953]
YAP1 (% UTC) [4]: 32 % UTC

1076263 (kA*kA*kT*dA*dA*d[5mC]*d[5mC]*dA*dA*dG*dT*dG*dA*kG*kT*kT; antisense) [Compound 1076263]
YAP1 (% UTC) [9]: 21 % UTC

1075080 (antisense kA*kT*kT*dA*d[5mC]*dA*dA*dA*dG*dA*d[5mC]*dA*dG*k[5mC]*k[5mC]*k[5mC]) [Compound 1075080]
YAP1 (% UTC) [2]: 18 % UTC

1074385 (k[5mC]*kT*kT*d[5mC]*dA*dA*dG*dG*dT*dA*dG*dT*d[5mC]*kT*kG*kG; antisense) [compound 1074385]
YAP1 (% UTC) [1]: 17 % UTC

1074387 (k[5mC]*k[5mC]*kA*dG*dG*dA*dA*dT*dG*dG*d[5mC]*dT*dT*k[5mC]*kA*kA; antisense) [compound 1074387]
YAP1 (% UTC) [10]: 32 % UTC

716383 (kT*k[5mC]*kA*dT*d[5mC]*dA*dT*dA*dT*dT*d[5mC]*dT*dG*k[5mC]*kT*kG; antisense) [Compound 716383]
YAP1 (% UTC) [11]: 98 % UTC

1075594 (kT*kG*kA*dG*dA*dA*dT*dA*dT*dT*d[5mC]*d[5mC]*dT*k[5mC]*k[5mC]*k[5mC]; antisense) [Compound 1075594]
YAP1 (% UTC) (Table 24, Yap1 mRNA as percent of untreated control, 3-10-3 cEt gapmers targeting SEQ ID NO.: 1, and 2): 64 % UTC

1074993 (antisense kT*k[5mC]*kT*dA*dA*dT*d[5mC]*dA*dA*d[5mC]*dA*d[5mC]*dT*kG*kG*kA) [compound 1074993]
YAP1 (% UTC) [1]: 65 % UTC

1075282 (antisense kG*kA*kA*dA*dA*dA*dT*dG*dA*dG*d[5mC]*d[5mC]*d[5mC]*kG*kG*kT) [compound 1075282]
YAP1 (% UTC) [6]: 103 % UTC

1075461 (antisense k[5mC]*kT*kA*dA*dA*dT*dA*dA*d[5mC]*d[5mC]*dA*dA*dG*kG*kA*kT) [Compound 1075461]
YAP1 (% UTC) [5]: 64 % UTC

1076452 (kG*kG*kA*d[5mC]*dT*dA*dT*dA*dG*d[5mC]*d[5mC]*d[5mC]*dT*kT*kA*kA; antisense) [Compound 1076452]
YAP1 (% UTC) [3]: 16 % UTC

716406 (kA*k[5mC]*kT*d[5mC]*dT*d[5mC]*dA*dT*d[5mC]*dT*d[5mC]*dG*dA*kG*kA*kG; antisense) [Compound 716406]
YAP1 (% UTC) [12]: 117 % UTC

1075429 (antisense k[5mC]*kT*kT*dT*dA*d[5mC]*dT*dA*dT*d[5mC]*dT*dG*dG*kG*kT*k[5mC]) [Compound 1075429]
YAP1 (% UTC) [5]: 23 % UTC

716577 (kT*k[5mC]*kT*dG*dT*d[5mC]*dA*dG*dT*dT*dA*dT*d[5mC]*k[5mC]*kT*kA; antisense) [Compound 716577]
YAP1 (% UTC) [12]: 21 % UTC

1076563 (k[5mC]*kA*kA*dA*dG*dT*dA*dA*dT*dT*dA*dA*dA*k[5mC]*kG*kA; antisense) [compound 1076563]
YAP1 (% UTC) [10]: 91 % UTC

1075397 (antisense k[5mC]*kA*kT*dT*dA*dT*d[5mC]*dG*d[5mC]*dA*d[5mC]*dA*dT*kA*k[5mC]*kA) [Compound 1075397]
YAP1 (% UTC) [5]: 79 % UTC

716537 (antisense kA*kT*kG*dT*dG*d[5mC]*dT*d[5mC]*d[5mC]*dA*dT*d[5mC]*dA*kA*k[5mC]*k[5mC]) [Compound 716537]
YAP1 (% UTC) [8]: 36 % UTC

1076423 (k[5mC]*k[5mC]*kT*dG*dA*dA*d[5mC]*d[5mC]*dT*dT*d[5mC]*dT*dG*kG*kA*kT; antisense) [Compound 1076423]
YAP1 (% UTC) [9]: 93 % UTC

1074889 (antisense kA*kG*kT*dT*dT*dA*dG*d[5mC]*d[5mC]*dT*dG*dA*dA*kG*k[5mC]*kA) [Compound 1074889]
YAP1 (% UTC) [4]: 42 % UTC

1074149 (antisense kG*k[5mC]*k[5mC]*dG*dA*dG*dG*dT*dG*dG*dA*dG*dA*kA*kG*k[5mC]) [Compound 1074149]
YAP1 (% UTC) [5]: 58 % UTC

716530 (antisense kA*k[5mC]*kA*dT*d[5mC]*dA*dA*dG*dG*d[5mC]*dT*dA*dT*kG*kA*kT) [Compound 716530]
YAP1 (% UTC) [11]: 83 % UTC

716412 (kG*kT*kA*dG*dT*d[5mC]*dT*dG*dG*dG*dA*dA*dA*k[5mC]*kG*kG; antisense) [Compound 716412]
YAP1 (% UTC) [12]: 41 % UTC

1076038 (kA*kG*kG*d[5mC]*dA*dA*dG*dA*dA*dT*dT*dG*dG*kG*kT*kA; antisense) [Compound 1076038]
YAP1 (% UTC) [13]: 11 % UTC

1075046 (antisense kA*kA*kA*dA*dT*dT*dA*dG*dA*d[5mC]*dT*d[5mC]*d[5mC]*k[5mC]*k[5mC]*k[5mC]) [Compound 1075046]
YAP1 (% UTC) [13]: 12 % UTC

1074161 (kG*kG*k[5mC]*dG*dA*dG*d[5mC]*dG*dA*dG*dG*dG*d[5mC]*kT*kA*k[5mC]; antisense) [compound 1074161]
YAP1 (% UTC) [1]: 98 % UTC

1075973 (k[5mC]*k[5mC]*kG*d[5mC]*dA*dA*d[5mC]*dA*d[5mC]*d[5mC]*dA*dT*dT*k[5mC]*kT*kT; antisense) [Compound 1075973]
YAP1 (% UTC) [5]: 8 % UTC

1074917 (antisense k[5mC]*kA*kA*dG*dT*dT*dA*d[5mC]*dA*dT*d[5mC]*d[5mC]*d[5mC]*kG*kA*kG) [Compound 1074917]
YAP1 (% UTC) [5]: 80 % UTC

716521 (antisense k[5mC]*kA*kG*d[5mC]*dA*d[5mC]*dG*dG*dT*dG*dT*dA*dA*kG*kA*k[5mC]) [Compound 716521]
YAP1 (% UTC) [11]: 79 % UTC

1075974 (kA*kA*kA*dA*dA*dA*dT*dT*d[5mC]*d[5mC]*dG*d[5mC]*dA*kA*k[5mC]*kA; antisense) [Compound 1075974]
YAP1 (% UTC) [13]: 39 % UTC

1074247 (antisense kA*kT*k[5mC]*dG*dA*dT*dG*dT*dG*dA*dT*dT*dT*kA*kA*kG) [Compound 1074247]
YAP1 (% UTC) [9]: 43 % UTC

716415 (kA*kG*k[5mC]*dT*d[5mC]*d[5mC]*dT*d[5mC]*dT*d[5mC]*d[5mC]*dT*dT*k[5mC]*kT*kA; antisense) [Compound 716415]
YAP1 (% UTC) [12]: 90 % UTC

1074758 (k[5mC]*kA*kG*dT*dT*dA*dA*dG*d[5mC]*dA*d[5mC]*dT*dT*kT*kT*kA; antisense) [Compound 1074758]
YAP1 (% UTC) [13]: 4 % UTC

716503 (kT*kT*kA*dT*dT*dA*dT*dG*dA*dG*dT*dG*dA*kT*k[5mC]*kA; antisense) [Compound 716503]
YAP1 (% UTC) [11]: 33 % UTC

1076043 (k[5mC]*kA*kA*dA*dA*dA*dG*dG*d[5mC]*dT*dA*dT*dT*kG*kA*kG; antisense) [Compound 1076043]
YAP1 (% UTC) [7]: 36 % UTC

1075570 (kG*kA*kT*dA*d[5mC]*dT*dA*dA*dG*d[5mC]*dA*d[5mC]*dA*kG*kA*kG; antisense) [compound 1075570]
YAP1 (% UTC) [6]: 16 % UTC

1074309 (antisense k[5mC]*k[5mC]*kG*d[5mC]*dA*dT*dT*dG*d[5mC]*d[5mC]*dT*dG*dT*kG*kG*k[5mC]) [Compound 1074309]
YAP1 (% UTC) [5]: 80 % UTC

1074183 (antisense k[5mC]*k[5mC]*kG*dG*dT*dT*dG*dA*dG*dG*d[5mC]*dG*dG*k[5mC]*kG*kG) [Compound 1074183]
YAP1 (% UTC) [9]: 90 % UTC

1075721 (kT*kT*kA*dA*dA*dT*dA*d[5mC]*d[5mC]*dT*dT*d[5mC]*dT*kA*kG*k[5mC]; antisense) [Compound 1075721]
YAP1 (% UTC) [4]: 67 % UTC
